Legend:
[1] = Microsomal (metabolic) stability, rat liver microsomes; details: for CLint scaled at 10 µM / half-life at 10 µM: rat
Source text: (§1) By using the measured microsomal in vitro t1/2, a calculated value for the intrinsic clearance Clint can be determined. This value states the measure in which a drug that is not bound to plasma proteins is irreversibly removed from the body by the liver. This value is expressed in mL/min/kg which can be interpreted as the volume of blood in mL that is cleared of a drug per minute per kilogram of body weight. The CLint is less sensitive to used variables in ADME assays since the amount of microsomal protein and the volume of the incubation are all taken into account. (Sohlenius-Sternbeck et al., Xenobiotica, 2012, 42, 841-853)
(§2) Liver microsomes (20 mg protein/ml), NADPH regenerating system solutions A & B and 5 mM stock compound solution (100% DMSO) are prepared. The reaction mixture finally contains 713 μL purified water, 200 μL 0.5 M potassium phosphate pH 7.4, 50 μL NADPH regenerating system solution A (BD Biosciences Cat. No. 451220), 10 μL NADPH regenerating system solution B (BD Biosciences Cat. No. 451200) and 2 μL of the compound stock solution (10 μM final concentration). The reaction mixture is warmed to 37° C. for 5 minutes in a water bath and the reaction is initiated by addition of 25 μL of liver microsomes (0.5 mg protein/ml final concentration). At different time points (0 min-15 min-30 min-60 min-120 min-240 min-360 min-24 h), 20 μL is withdrawn and 80 μL cold acetonitrile is added on ice for 10 minutes. Then the mixtures are centrifuged at 13 000 rpm for 5 min at 4° C. The supernatant is further diluted in 90% water/MeCN (1/25) to fall within the range of the LC/MS/MS analysis. At each time point, the compound is analysed using LC/MS/MS with the same UPLC system as described above. A standard curve of six points was made to fit the measured concentrations. Verapamil was used as a positive control.
(§3) All obtained readouts were processed using Microsoft Excel. In order to determine the microsomal half-life t1/2 of the compounds, the rate constant k was determined by plotting the exponential decay graphs using GraFit. Microsomal t1/2 was determined using the following formula: […]

[2] = Pharmacokinetics and tissue distribution after single-dose iv injection in mice; type: in vivo; details: iv ~10 mg/kg; for Tissue distribution profile, levels in organs: 24 h after injection; for Crossing of the blood-brain barrier: brain tissue (FIG. 4), 10 mg/kg
Experimental: FIG. 4: Tissue distribution of ferrostatin-analogues. Equimolar amounts of Ferrostatin (Fer-1), compound 39 (depicted as UAMC-3203) and compound 38 (depicted as UAMC-3206) (˜10 mg/kg) were injected intravenously 2 h (left panel) or 24 h (right panel) before tissue collection (heart, liver, lung, muscle, kidney and brain). Tissues were collected, snap frozen in liquid nitrogen, homogenized and stored at −80° C. until analysis. The tissue samples for LC-MS were further processed by protein precipitation by diluting 20 μL of the homogenate with 80 μL ACN containing IS (tolbutamide). After centrifugation, the supernatant was further diluted in the appropriate solvent.
The detected levels of UAMC-3203 vary between 3-60 ng/mg tissue depending on the organ, which is up to […] or 6-fold higher than the dose injected.

[3] = Plasma stability, mouse plasma; type: in vitro ADME; details: 37° C., remaining parent compound, read-out: Plasma stability (% recovery after 6 h), Mouse
Experimental: (§4) 5 μl of a 10 mM stock solution of the compound in DMSO was added to 995 μl of plasma to obtain a 50 μM final solution. The mixture was gently shaken for 6 h at 37° C. Aliquots of 100 μl were taken at various time points (0, 0.5 h, 1 h, 2 h, 3 h and 6 h) and diluted with 400 μl of cold methanol (stored at 4° C.). The suspension was centrifuged at 14000 rpm for 5 min. 50 μl of the supernatant was diluted with 950 μl of methanol and analysed with LC/MS/MS. The samples were analysed in triplicate. The experiment was done in duplicate. […] Enalapril maleate was used as a control in mice, rats, and in human.

[4] = Plasma stability, rat plasma; type: in vitro ADME; details: 37° C., remaining parent compound, read-out: Plasma stability (% recovery after 6 h), Rat
Experimental: as §4

[5] = Plasma stability, human plasma; type: in vitro ADME; details: 37° C., remaining parent compound, read-out: Plasma stability (% recovery after 6 h), Human
Experimental: as §4

[6] = Microsomal (metabolic) stability, human liver microsomes; details: for CLint scaled at 10 µM / half-life at 10 µM: human, liver microsomes; for CLint scaled at 10 µM: pH 7.4; for half-life at 10 µM: pH 7.4, Microsomal stability (t1/2); for half-life at 10 µM / Microsomal stability (t1/2), Human: human liver microsomes, 0.5 mg protein/ml, 10 μM compound, 37° C.; for Microsomal stability (t1/2), Human: Hydrochloride
Source text: as §1, §2, §3

[7] = Kinetic solubility (turbidimetric method); type: physicochemical; details: 10 mM PBS pH 7.4, 2% DMSO, test range 3.125-200 μM, 2 h at 37° C.
Experimental: A turbidimetric method was used. First a series of DMSO compound stock solutions was prepared ([…]). An aliquot of 4 μL stock solution was added to 196 μL PBS buffer (pH 7.4). A series of concentrations were prepared (3.13-200 μM), including a blank on a microtiter plate. (2% DMSO-D6) The microtiter plate was shaken for 10 seconds and incubated for 2 hours at 37° C. When there was no turbidity measured at a given concentration the sample was assumed to be dissolved.

[8] = Pharmacokinetics and tissue distribution after single-dose iv injection in mice; type: in vivo; details: single-dose iv injection (~10 mg/kg)
[9] = test system: acute iron poisoning induced organ damage; assay: Acute iron poisoning (FeSO4) induced organ damage, plasma LDH and creatine kinase; type: in vivo; details: for Protection against organ damage: plasma lactate dehydrogenase (LDH) and creatine kinase levels, prophylactic setting: ~10 mg/kg iv 15 min before FeSO4 300 mg/kg ip, plasma 2 h after challenge (FIG. 5A); for Protection against organ damage: plasma lactate dehydrogenase (LDH) and creatine kinase levels, therapeutic setting: ~10 mg/kg iv 30 min after FeSO4 300 mg/kg ip, plasma 8 h after challenge (FIG. 5B)
Experimental: Equimolar amounts of ferroptosis inhibitors (˜10 mg/kg) were injected iv 15 min before ip injection of FeSO4 (300 mg/kg). Plasma was collected 2 h after FeSO4-challenge and analyzed for the presence of lactate dehydrogenase (LDH) and creatine kinase. Fer-1 is ferrostatin, 3234 is compound 37,3206 is compound 38 and 3203 is compound 39 (see Table 1 for numbering and structure). […] Equimolar amounts of ferroptosis inhibitors (˜10 mg/kg) were injected iv 30 min after ip injection of FeSO4 (300 mg/kg). Plasma was collected 8 h after FeSO4-challenge and analyzed for the presence of lactate dehydrogenase (LDH) and creatine kinase.
We identified acute iron poisoning as a novel experimental model for in rhabdomyolysis-induced kidney failure.

[10] = liver microsomes, pH 7.4, Microsomal stability (t1/2), rat liver microsomes, 0.5 mg protein/ml, 10 μM compound, 37° C.

CNCCNS(=O)(=O)c1ccc(NC2CCCCC2)c(NCc2ccccc2)c1.Cl [Compound 37, 3-(benzylamino)-4-(cyclohexylamino)-N-(2-(methylamino)ethyl)benzenesulfonamide Hydrochloride]
CLint scaled at 10 µM ([1]; liver microsomes, pH 7.4): 161 ± 4.6 mL/min/kg | half-life at 10 µM [1, 10]: 0.35 ± 0.01 h | Tissue distribution profile, levels in organs [2]: not detected in any organ | recovery at 6 h, 50 μM [3]: 100% | recovery at 6 h, 50 μM [4]: 65.8% | recovery at 6 h, 50 μM [5]: 90.3% | CLint scaled at 10 µM [6]: 1.7 ± 0.5 mL/min/kg | half-life at 10 µM [6]: 13.2 ± 4.1 h | Solubility (kinetic) [7]: >200 µM | Levels in blood [8]: almost undetectable levels in blood | Protection against organ damage: plasma lactate dehydrogenase (LDH) and creatine kinase levels, prophylactic setting [9]: more effective | Protection against organ damage: plasma lactate dehydrogenase (LDH) and creatine kinase levels, therapeutic setting [9]: more effective

Cl.O=S(=O)(NCCN1CCNCC1)c1ccc(NC2CCCCC2)c(NCc2ccccc2)c1 [Compound 39, 3-(benzylamino)-4-(cyclohexylamino)-N-(2-(piperazin-1-yl)ethyl)benzenesulfonamide Hydrochloride]
Microsomal stability (t1/2), Rat ([1]; rat liver microsomes, 0.5 mg protein/ml, 10 μM compound, 37° C., Hydrochloride): 16.48 ± 4.66 h | CLint scaled at 10 µM ([1]; liver microsomes, pH 7.4): 3.4 ± 1 mL/min/kg | half-life at 10 µM [1, 10]: 16.5 h | Tissue distribution profile compared to -3206 and benchmark Fer-1 ([2]; 2 h after injection): superior profile | Tissue distribution profile, levels in organs [2]: still present in range of 2- to 100-fold less than the dose injected | Crossing of the blood-brain barrier ([2]; Hydrochloride): efficiently crosses the blood brain barrier | Crossing of the blood-brain barrier ([2]; listed as UAMC-3203, Hydrochloride): seems to cross the blood-brain barrier | concentration at 2 h ([2]; mouse, tissues (heart, liver, lung, muscle, kidney, brain), 2 h after injection, read-out: Detected levels in tissue depending on the organ): 3000 to 60000 ng/g | recovery at 6 h, 50 μM [3]: 100% | recovery at 6 h, 50 μM [4]: 85.8% | recovery at 6 h, 50 μM [5]: 84.2% | Microsomal stability (t1/2), Human [6]: 20.53 ± 5.49 h | CLint scaled at 10 µM [6]: 1.1 ± 0.3 mL/min/kg | half-life at 10 µM [6]: 20.5 h | Solubility (kinetic) [7]: >200 µM | Levels in blood [8]: almost undetectable levels in blood | Protection against organ damage: plasma lactate dehydrogenase (LDH) and creatine kinase levels, prophylactic setting [9]: more effective | Protection against organ damage: plasma lactate dehydrogenase (LDH) and creatine kinase levels, therapeutic setting [9]: more effective

Cl.NCCNS(=O)(=O)c1ccc(NC2CCCCC2)c(NCc2ccccc2)c1 [Compound 38, N-(2-aminoethyl)-3-(benzylamino)-4-(cyclohexylamino)benzenesulfonamide Hydrochloride]
CLint scaled at 10 µM ([1]; liver microsomes, pH 7.4): 27.4 ± 2.7 mL/min/kg | half-life at 10 µM ([1]; microsomes, pH 7.4): 2.05 h | Tissue distribution profile, levels in organs [2]: detected in very low levels | recovery at 6 h, 50 μM [3]: 100% | recovery at 6 h, 50 μM [4]: 100% | recovery at 6 h, 50 μM [5]: 100% | Microsomal stability (t1/2), Human [6]: 17.71 ± 2.04 h | CLint scaled at 10 µM [6]: 1.3 ± 0.1 mL/min/kg | half-life at 10 µM [6]: 17.7 h | Solubility (kinetic) [7]: >200 µM | Levels in blood [8]: almost undetectable levels in blood | Protection against organ damage: plasma lactate dehydrogenase (LDH) and creatine kinase levels, prophylactic setting [9]: more effective | Protection against organ damage: plasma lactate dehydrogenase (LDH) and creatine kinase levels, therapeutic setting [9]: more effective
